Laboratory results as given in ChEMBL document CHEMBL1148373, “2-amino-O4-benzylpteridine derivatives: potent inactivators of O6-alkylguanine-DNA alkyltransferase” (2004).
Calls of active or inactive are those of the source. The rule behind the calls is not given here.

Experiments:
HT-29 [1] = test: Effective dose required to kill 90% of HT-29 cells with BCNU (40 uM); format: functional, Homo sapiens
HT-29 [2] = test: Effective dose required to kill 90% of HT-29 cells with BCNU (40 uM; format: functional, cell-based; settings: Homo sapiens
HT-29 [3] = test: Effective dose required to kill 90% HT-29 cells with BCNU (40 uM); format: functional, Homo sapiens
HT-29 [4] = test: Effective dose required to kill 90% of HT-29 cells with BCNU (40 uM); RPMI medium; format: functional, Homo sapiens
HT-29 [5] = test: Effective dose required to kill 90% of HT-29 cells with BCNU (40 uM); folate-free RPMI medium; format: functional, Homo sapiens
HT-29 [6] = test: Effective dose required to kill 90% of HT-29 cells with BCNU (40 Dulbecco''s medium; format: functional, Homo sapiens
[7] = molecular target: T1, Methylated-DNA--protein-cysteine methyltransferase (Homo sapiens) (UniProt P16455)
T1 sequence (whole entry): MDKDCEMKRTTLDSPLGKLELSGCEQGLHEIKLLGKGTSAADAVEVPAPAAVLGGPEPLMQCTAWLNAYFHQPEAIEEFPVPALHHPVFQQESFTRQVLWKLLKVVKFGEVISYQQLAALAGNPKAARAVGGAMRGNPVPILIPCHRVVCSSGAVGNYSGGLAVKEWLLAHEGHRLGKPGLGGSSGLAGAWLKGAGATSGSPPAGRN
Description: In vitro inactivation of human O6-alkylguanine-DNA alkyltransferase in the absence of calf thymus DNA (ctDNA)

[8] = molecular target: T1, Methylated-DNA--protein-cysteine methyltransferase (Homo sapiens); remark: listed apart in the source
Description: In vitro inactivation of human O6-alkylguanine-DNA alkyltransferase in the presence of calf thymus DNA (ctDNA)

Q: Which ED90 (HT-29 [1]) does the source give for Nc1nc(OCc2ccccc2)c2nccnc2n1 here?
A: The ED90 was 200 nM.

Q: Cc1nc2nc(N)nc(OCc3ccccc3)c2nc1C was tested. Which ED90 (HT-29 [1]) did it give?
A: Its ED90 is 600 nM.

Q: With Nc1nc(OCc2ccccc2)c2nc(C(=O)O)cnc2n1 as the compound, how does the ED90 (HT-29 [2]) read?
A: The ED90 was “inactive”.

Q: Nc1nc(OCc2ccccc2)c2nc(CO)cnc2n1 was tested. Which ED90 (HT-29 [3]) did it give?
A: Its ED90 is 700 nM.

Q: With Nc1nc(OCc2ccccc2)c2nc(CNc3ccc(C(=O)N[C@@H](CCC(=O)O)C(=O)O)cc3)cnc2n1 as the compound, how does the ED90 (HT-29 [4]) read?
A: The ED90 was 24000 nM.

Q: What about the ED90 (HT-29 [5]) of the same compound?
A: Its ED90 is 15000 nM.

Q: For Nc1nc(OCc2ccccc2)c2nc(C=O)cnc2n1, which ED90 (HT-29 [1]) is on record?
A: The ED90 was 700 nM.

Q: Which results are given for Nc1nc(OCc2ccccc2)c2nc[nH]c2n1 [6-O-BENZYLGUANINE]?
A: ED90 (HT-29 [6]): 400 nM; ED90 (HT-29 [4]): 700 nM; ED50 [7]: 320 nM; ED50 [8]: 120 nM
